# Results from patent publication US20260284082A1, “TARGETING THE PANX1-P2Y2R-TRPV4 PATHWAY TO TREAT LUNG ISCHEMIA-REPERFUSION INJURY” (UNIVERSITY OF VIRGINIA PATENT FOUNDATION, priority 2023, published 2026).
# Columns and labels:
# mouse model of lung IRI = assay: Murine lung IR model (left-lung hilar ligation), pre-treatment with P2Y2R inhibitor; format: in vivo, mice; conditions: AR-C 5 mg/kg via jugular vein 1 hr prior to hilar ligation; 1 h ischemia + 2 h reperfusion
# Description: Murine lung IR model. A left-lung hilar-ligation model of IRI in mice involving 1 hour of ligation (ischemia) followed by 2 hours of reperfusion.^9,20 Partial pressure of oxygen, lung compliance, lung edema, neutrophil infiltration, and cytokine levels in bronchoalveolar lavage fluid were assessed. Exposure of small pulmonary arteries and pulmonary microvascular endothelial cells to acute hypoxia-reoxygenation were used as ex vivo and in vitro surrogate models of IR, respectively.
# Murine lung IR model: A well-established left lung IRI model involving temporary in vivo ligation of the left hilum (pulmonary artery, vein, and airway) was used.^6 Briefly, mice were anesthetized with inhaled isoflurane, intubated, ventilated with room air at 150 strokes/min with a tidal volume of […] (Harvard Apparatus Co, South Natick, MA), and heparinized (20 U/kg: Hospira Inc, Lake Forest, IL). […] Animals were again extubated, recovered in their cage, and monitored during the 2-hour reperfusion period. […]
# Partial pressure of arterial oxygen (PaO2): After reperfusion, animals were anesthetized, intubated, and ventilated with 100% oxygen. […] Left lung-specific PaO2 was immediately measured using an i-STAT handheld blood analyzer and CG4+ cartridge (Abbott Point of Care, Princeton, NJ).
# Lung wet-to-dry weight ratio: Lung wet-to-dry weight ratio was measured as an indicator of pulmonary edema. […]
# [1] = dog, in vivo; cited from earlier work
# [2] = test system: pulmonary endothelium of small PAs; assay: Endothelial Ca2+ signals in small PAs exposed ex vivo to acute hypoxia-reoxygenation (HR); format: cell-based; conditions: GSK219 100 nM; small PAs from TRPV4fl/fl mice, 1 h hypoxia + 10 min reoxygenation
# Description: Ca^2+ imaging in Pas: Ca^2+ imaging in small Pas was performed as previously described.8 Fourth-order, small (~50 μm diameter) Pas (see FIG. 1B) were dissected from left lungs in cold HEPES-buffered physiological salt solution (HEPES-PSS; 10 mM HEPES, 134 mM NaCl, 6 mM KCl, 1 mM MgCl2 hexahydrate, 2 mM CaCl2) dihydrate, and 7 mM dextrose; pH adjusted to 7.4 using 1 M NaOH). Ca^2+ imaging studies were performed in en face preparations of small Pas incubated with Fluo-4 AM (10 μM) and pluronic acid (0.04%) at 37° C. for 10 minutes. For studies after sham or lung IR surgery, small Pas were immediately dissected out after the indicated reperfusion time and incubated en face with Fluo-4 AM. […] Fluo-4 was excited using a 488-nm solid-state laser, and emitted fluorescence was captured using a 525/36-nm band-pass filter. […] Baseline Ca^2+ signaling activity was recorded in the absence of CPA.
# Analysis of baseline Ca^2+ signaling activity and TRPV4 sparklet activity in the pulmonary endothelium: Ca^2+ images acquired using the procedure described above were analyzed with custom-designed SparkAn software (source code available at https://github.com/vesselman/SparkAn).^10 Fractional fluorescence (F/F0) traces were obtained by placing a 1.7 μm2 (5×5 pixels) region of interest (ROI) at the peak event amplitude. […] Overall baseline Ca^2+ signals were automatically detected using a threshold of 1.25 F/F0. […]
SMILES,partial pressure of oxygen (PaO2) after IR (lung function) (mouse model of lung IRI),pulmonary edema (lung wet-to-dry weight ratio) after IR (mouse model of lung IRI),plasma half-life (t1/2) [1],HR-induced increase in endothelial Ca2+ signals [2]
"Cc1ccc2c(c1)C=Cc1cc(C)ccc1C2c1cn(Cc2ccc(C(=O)Nc3nn[nH]n3)o2)c(=O)[nH]c1=S [ARC, AR-C 118925XX]",improved,not in mice pre-treated with P2Y2R inhibitor AR-C,,
"O=C(NC1(c2ccccc2)CC1)c1c(CN2CCC(N3CCCCC3)CC2)c(-c2cccc(C(F)(F)F)c2)nc2cc(Br)ccc12 [GSK219, GSK2193874]",,,31 h,completely abolished
